This experiment addresses IRAK4 (Homo sapiens (Human), UniProt Q9NWZ3). Briefly: IRAK4 Kinase Assay. It counts as biochemical. The settings on record: IMAP fluorescence polarization, 0.5 nM GST tagged IRAK4, 100 μM ATP, 30 minutes at 25° C.; read-out: IRAK4 IC50.

Structures can show the parent of a compound that is named as a salt.

Chain of IRAK4 (Q9NWZ3 whole entry): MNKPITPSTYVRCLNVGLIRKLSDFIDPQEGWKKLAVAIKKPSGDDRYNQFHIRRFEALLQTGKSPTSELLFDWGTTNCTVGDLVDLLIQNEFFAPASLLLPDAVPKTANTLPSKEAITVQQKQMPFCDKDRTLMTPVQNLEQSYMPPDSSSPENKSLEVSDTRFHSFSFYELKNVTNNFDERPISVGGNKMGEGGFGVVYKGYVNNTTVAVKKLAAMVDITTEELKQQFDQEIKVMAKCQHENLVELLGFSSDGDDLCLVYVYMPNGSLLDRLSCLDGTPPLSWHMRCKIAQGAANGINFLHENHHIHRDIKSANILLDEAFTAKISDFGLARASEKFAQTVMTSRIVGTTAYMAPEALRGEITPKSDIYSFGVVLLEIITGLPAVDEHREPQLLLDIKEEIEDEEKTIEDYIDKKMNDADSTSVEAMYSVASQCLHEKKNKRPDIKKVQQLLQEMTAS

`Cn1cc(NC(=O)c2cnn3ccc(N4CCC[C@H](O)C4)nc23)c(C(F)F)n1` [Example 26, N-[3-(difluoromethyl)-1-methyl-1H-pyrazol-4-yl]-5-[(3S)-3-hydroxypiperidin-1-yl]pyrazolo[1,5-a]pyrimidine-3-carboxamide]: the IC50 (commonly the point on the concentration scale where inhibition reaches its midpoint) stood at 0.5 nM.
For `O=C(Nc1ccsc1C(F)(F)F)c1cnn2ccc(N3CC4CCC3CN4)nc12` (stereo not drawn) [Example 147, 5-(2,5-diazabicyclo[2.2.2]oct-2-yl)-N-[2-(trifluoromethyl)thiophen-3-yl]pyrazolo[1,5-a]pyrimidine-3-carboxamide trifluoroacetate], the IC50 amounted to 979 nM.
For `Cn1cc(NC(=O)c2cnn3ccc(N4CCNCC4(C)C)nc23)c(C(F)(F)F)n1` [Example 216, 5-(2,2-dimethylpiperazin-1-yl)-N-[1-methyl-3-(trifluoromethyl)-1H-pyrazol-4-yl]pyrazolo[1,5-a]pyrimidine-3-carboxamide trifluoroacetate], the IC50 is 127 nM.
For `O=C(Nc1cn(CC(F)(F)F)nc1C(F)(F)F)c1cnn2ccc(N3CC4CCC3CN4)nc12` (stereo not drawn) [Example 58, 5-(2,5-diazabicyclo[2.2.2]oct-2-yl)-N-[1-(2,2,2-trifluoroethyl)-3-(trifluoromethyl)-1H-pyrazol-4-yl]pyrazolo[1,5-a]pyrimidine-3-carboxamide trifluoroacetate], the IC50 stood at 267 nM.
For `N[C@H]1CCCC[C@H]1Nc1ccn2ncc(C(=O)Nc3ccccc3Cl)c2n1` [Example 104, 5-{[(1R,2)S-2-aminocyclohexyl]amino}-N-(2-chlorophenyl)pyrazolo[1,5-a]pyrimidine-3-carboxamide trifluoroacetate], the IC50 was 1 nM.
Take `Cn1cc(NC(=O)c2cnn3ccc(N4C[C@@H](N)C[C@H](F)C4)nc23)c(C(F)F)n1` [Example 248, 5-[(3S,5S)-3-amino-5-fluoropiperidin-1-yl]-N-[3-(difluoromethyl)-1-methyl-1H-pyrazol-4-yl]pyrazolo[1,5-a]pyrimidine-3-carboxamide trifluoroacetate]: the IC50 turned out to be 0.9 nM.
In the case of `O=C(Nc1ccsc1Cl)c1cnn2ccc(N3CCCNCC3)nc12` [Example 117, N-(2-chlorothiophen-3-yl)-5-(1,4-diazepan-1-yl)pyrazolo[1,5-a]pyrimidine-3-carboxamide trifluoroacetate] it was 403 nM.
The value for `N#Cc1cscc1NC(=O)c1cnn2ccc(N3CC4CCC3CN4)nc12` (stereo not drawn) [Example 145, N-(4-cyanothiophen-3-yl)-5-(2,5-diazabicyclo[2.2.2]oct-2-yl)pyrazolo[1,5-a]pyrimidine-3-carboxamide trifluoroacetate] was 165 nM; that for `Cn1cc(NC(=O)c2cnn3ccc(N4C[C@@H]5CN[C@@H](C5)C4)nc23)c(C(F)(F)F)n1` (single isomer, unassigned) [Example 224, 5-[(1S,5S)- or (1R,5R)-3,6-diazabicyclo[3.2.1]oct-3-yl]-N-[1-methyl-3-(trifluoromethyl)-1H-pyrazol-4-yl]pyrazolo[1,5-a]pyrimidine-3-carboxamide] was 70 nM; that for `O=C(Nc1cn(C(F)F)nc1C(F)(F)F)c1cnn2ccc(N[C@@H]3CCCC[C@@H]3O)nc12` [Example 72, N-[1-(difluoromethyl)-3-(trifluoromethyl)-1H-pyrazol-4-yl]-5-{[(1R,2S)-2-hydroxycyclohexyl]amino} pyrazolo[1,5-a]pyrimidine-3-carboxamide trifluoroacetate] was 141 nM.
Consider `O=C(Nc1ccccc1Br)c1cnn2ccc(N3CCCNCC3)nc12` [Example 109, N-(2-bromophenyl)-5-(1,4-diazepan-1-yl)pyrazolo[1,5-a]pyrimidine-3-carboxamide trifluoroacetate], for which the IC50 is 3360 nM.
Turning to `Cn1cc(NC(=O)c2cnn3ccc(N[C@@H]4CNCC(F)(F)C4)nc23)c(C(F)(F)F)n1` (single isomer, unassigned) [Example 218, 5-{[(3S)- or (3R)-5,5-difluoropiperidin-3-yl]amino}-N-[1-methyl-3-(trifluoromethyl)-1H-pyrazol-4-yl]pyrazolo[1,5-a]pyrimidine-3-carboxamide], the IC50 turned out to be 685 nM.
As to `Cn1cc(NC(=O)c2cnn3ccc(NC4CCNCC4)nc23)c(C(F)(F)F)n1` [Example 7, N-[1-methyl-3-(trifluoromethyl)-1H-pyrazol-4-yl]-5-(piperidin-4-ylamino)pyrazolo[1,5-a]pyrimidine-3-carboxamide trifluoroacetate], the IC50 came out at 39 nM.
In the case of `N#Cc1ccccc1NC(=O)c1cnn2ccc(N3CCC[C@@H](N)C3)nc12` [Example 269, 5-[(3R)-3-aminopiperidin-1-yl]-N-(2-cyanophenyl)pyrazolo[1,5-a]pyrimidine-3-carboxamide trifluoroacetate] it was 143 nM; in that of `Cn1cc(NC(=O)c2cnn3ccc(NC4CCCCC4)nc23)cn1` [Example 3, 5-(cyclohexylamino)-N-(1-methyl-1H-pyrazol-4-yl)pyrazolo[1,5-a]pyrimidine-3-carboxamide trifluoroacetate], 237 nM.
As to `N[C@@H]1[C@H](Nc2ccn3ncc(C(=O)Nc4ccccc4C(F)(F)F)c3n2)CCCC1(F)F` [Example 114, 5-{[(1R,2R)-2-amino-3,3-difluorocyclohexyl]amino}-N-[2-(trifluoromethyl)phenyl] pyrazolo[1,5-a]pyrimidine-3-carboxamide trifluoroacetate], the IC50 was 3820 nM.
For `O=C(Nc1cscc1C(F)F)c1cnn2ccc(N3CC4CCC3CN4)nc12` (stereo not drawn) [Example 135, 5-(2,5-diazabicyclo[2.2.2]oct-2-yl)-N-[4-(difluoromethyl)thiopen-3-yl]pyrazolo[1,5-a]pyrimidine-3-carboxamide trifluoroacetate], the IC50 came to 48 nM.
Consider `Cn1cc(NC(=O)c2cnn3ccc(N4CC5CCC4CCN5)nc23)c(C(F)(F)F)n1` (stereo not drawn) [Example 73, 5-(2,6-diazabicyclo[3.2.2]non-6-yl)-N-[1-methyl-3-(trifluoromethyl)-1H-pyrazol-4-yl]pyrazolo[1,5-a]pyrimidine-3-carboxamide trifluoroacetate], for which the IC50 is 144 nM.
For `Cn1cc(NC(=O)c2cnn3ccc(N4CCN5CCC4CC5)nc23)c(C(F)(F)F)n1` [Example 40, 5-(1,4-diazabicyclo[3.2.2]non-4-yl)-N-[1-methyl-3-(trifluoromethyl)-1H-pyrazol-4-yl]pyrazolo[1,5-a]pyrimidine-3-carboxamide trifluoroacetate], the IC50 came out at 497 nM.
The value for `CC(C)(C)n1cc(NC(=O)c2cnn3ccc(N4CCNCC4)nc23)c(C(F)(F)F)n1` [Example 46, N-[1-tert-butyl-3-(trifluoromethyl)-1H-pyrazol-4-yl]-5-piperazin-1-ylpyrazolo[1,5-a]pyrimidine-3-carboxamide trifluoroacetate] was 48 nM.
Regarding `Cn1cc(NC(=O)c2cnn3ccc(N4C5CNCC4C5)nc23)c(C(F)(F)F)n1` [Example 214, 5-(3,6-diazabicyclo[3.1.1]hept-6-yl)-N-[1-methyl-3-(trifluoromethyl)-1H-pyrazol-4-yl]pyrazolo[1,5-a]pyrimidine-3-carboxamide], the IC50 is 38 nM.
In the case of `Cn1cc(NC(=O)c2cnn3ccc(N[C@@H]4CCCC[C@@H]4N)nc23)c(CCF)n1` [Example 289, 5-{[(1R,2S)-2-aminocyclohexyl]amino}-N-[3-(2-fluoroethyl)-1-methyl-1H-pyrazol-4-yl]pyrazolo[1,5-a]pyrimidine-3-carboxamide trifluoroacetate] it was 3 nM; in that of `Cn1cc(NC(=O)c2cnn3ccc(N[C@@H]4CNCC[C@H]4F)nc23)c(C(F)(F)F)n1` (single isomer, unassigned) [Example 232, 5-{[(3R,4R)- or (3S,4S)-4-fluoropiperidin-3-yl]amino}-N-[1-methyl-3-(trifluoromethyl)-1H-pyrazol-4-yl]pyrazolo[1,5-a]pyrimidine-3-carboxamide], 13 nM.
In the case of `Cn1cc(NC(=O)c2cnn3ccc(N[C@H]4CNC[C@H](F)C4)nc23)c(C(F)(F)F)n1` [Example 260, 5-{[(3R,5R)-5-fluoropiperidin-3-yl]amino}-N-[1-methyl-3-(trifluoromethyl)-1H-pyrazol-4-yl]pyrazolo[1,5-a]pyrimidine-3-carboxamide] it was 4 nM; in that of `Cn1cc(NC(=O)c2cnn3ccc(N4CCC[C@@H](O)C4)nc23)c(C(F)(F)F)n1` [Example 23, 5-[(3R)-3-hydroxypiperidin-1-yl]-N-[1-methyl-3-(trifluoromethyl)-1H-pyrazol-4-yl]pyrazolo[1,5-a]pyrimidine-3-carboxamide], 0.9 nM; in that of `Cn1cc(NC(=O)c2cnn3ccc(N4CC5CCC4CN5)nc23)c(C(F)(F)F)n1` (stereo not drawn) [Example 11, 5-(2,5-diazabicyclo[2.2.2]oct-2-yl)-N-[1-methyl-3-(trifluoromethyl)-1H-pyrazol-4-yl]pyrazolo[1,5-a]pyrimidine-3-carboxamide hydrochloride], 28 nM.
`Cn1cc(NC(=O)c2cnn3ccc(N[C@@H]4CNC[C@H](F)C4)nc23)c(C(F)(F)F)n1` [Example 254, 5-(((3S,5R)-5-Fluoropiperidin-3-yl)amino)-N-(1-methyl-3-(trifluoromethyl)-1H-pyrazol-4-yl)pyrazolo[1,5-a]pyrimidine-3-carboxamide]: the IC50 was found to be 876 nM.
Take `C[C@@H]1CN[C@@H](C)CN1c1ccn2ncc(C(=O)Nc3cn(C)nc3C(F)(F)F)c2n1` (relative stereo) [Example 93, 5-[trans-2,5-dimethylpiperazin-1-yl]-N-[1-methyl-3-(trifluoromethyl)-1H-pyrazol-4-yl]pyrazolo[1,5-a]pyrimidine-3-carboxamide trifluoroacetate]: the IC50 came to 30 nM.
`N[C@H]1CCCC[C@H]1Nc1ccn2ncc(C(=O)Nc3ccccc3C(F)F)c2n1` [Example 131, 5-{[(1R,2S)-2-aminocyclohexyl]amino}-N-[2-(difluoromethyl)phenyl] pyrazolo[1,5-a]pyrimidine-3-carboxamide trifluoroacetate]: the IC50 stood at 8 nM.
`O=C(Nc1ccccc1I)c1cnn2ccc(N3CCNCC4(CC4)C3)nc12` [Example 100, 5-(5,8-diazaspiro[2.6]non-5-yl)-N-(2-iodophenyl)pyrazolo[1,5-a]pyrimidine-3-carboxamide trifluoroacetate]: the 50% inhibitory concentration (IC50) turned out to be 8080 nM.

Values taken from US10329294B2, “Pyrazolopyrimidine inhibitors of IRAK4 activity” (MERCK SHARP & DOHME CORP., priority 2015, dated 2019).
